From ChEMBL document CHEMBL6071145, “A novel theranostic strategy for myocardial infarction through neutralization of endogenous SO2 using an endoplasmic reticulum-targeted fluorescent probe” (Eur J Med Chem, 2024)
The source made the active and inactive calls. No cut-off for these calls is given here.

Columns and labels:
H9c2 [1] = assay: Cardioprotective activity against H2O2 induced rat H9c2 cells preincubated with compound for 1 hr followed by H2O2 addition for 0.5 hr by confocal microscopic analysis; assay type: functional, cell-based; settings: time 90.0 min
H9c2 [2] = assay: Cytotoxicity against rat H9c2 cells at 80 uM incubated for 48 hrs by CCK-8 assay; assay type: toxicity, cell-based; settings: h9c2, 48 h
[3] = Drug uptake in male C57BL mouse model assessed as increase in fluorescence signal in apex cordis at 25 mg/kg; assay type: ADME, organism-based, Apex of heart; settings: in vivo
H9c2 [4] = assay: Cardioprotective activity against H2O2 induced rat H9c2 cells assessed as decrease in red fluorescence at 5 to 50 uM preincubated with compound for 1 hr followed by H2O2 addition for 0.5 hr by confocal microscopic analysis; assay type: functional, cell-based; settings: dose 5-50 µM, time 90.0 min
H9c2 [5] = assay: Cardioprotective activity against H2O2 induced rat H9C2 cells assessed as increase in green fluorescence at 5 to 50 uM preincubated with compound for 1 hr followed by H2O2 addition for 0.5 hr by confocal microscopic analysis; assay type: functional, cell-based; settings: dose 5-50 µM, time 90.0 min
H9c2 [6] = assay: Cardioprotective activity against H2O2 induced rat H9c2 cells assessed as production of BCL-2 protein at 0 to 50 uM preincubated with compound for 1 hr followed by H2O2 addition for 0.5 hr by Western blot analysis; assay type: functional, cell-based; settings: dose 0-50 µM, time 90.0 min
Mus musculus [7] = species on record: Mus musculus; assay: Cardioprotective activity against myocardial infarction male C57BL mouse assessed as increase in BCL-2 expression in peri-ischemic region by Western blot analysis; assay type: functional, organism-based
Mus musculus [8] = species on record: Mus musculus; assay: Cardioprotective activity against myocardial infarction male C57BL mouse assessed as increase in BCL-2 expression in ischemic region by Western blot analysis; assay type: functional, organism-based
Mus musculus [9] = species on record: Mus musculus; assay: Cardioprotective activity against myocardial infarction male C57BL mouse assessed as decrease in tissue structure by HE staining based analysis; assay type: functional, organism-based
Mus musculus [10] = species on record: Mus musculus; assay: Cardioprotective activity against myocardial infarction male C57BL mouse assessed as decrease in cardiac fibrosis by Masson staining based analysis; assay type: functional, organism-based
Mus musculus [11] = species on record: Mus musculus; assay: Cardioprotective activity against myocardial infarction male C57BL mouse assessed as […] in apoptosis by TUNEL staining based analysis; assay type: functional, organism-based
A549 = assay: Cytotoxicity against human A549 cells assessed as reduction in cell viability at 100 uM incubated for 48 hrs by CCK-8 assay; assay type: functional, cell-based
L02 = assay: Cytotoxicity against human LO2 cells assessed as reduction in cell viability at 100 uM incubated for 48 hrs by CCK-8 assay; assay type: toxicity, cell-based; settings: l02, 48 h
[12] = Drug localization in endoplasmic reticulum of human A549 cells assessed as colocalization incubated for 20 mins by ER-Tracker Green staining based anlaysis; assay type: ADME, subcellular; settings: a549, 20 min
[13] = Drug localization in lysosomes of human A549 cells assessed as colocalization incubated for 20 mins by lysoTracker Green DND-26 staining based analysis; assay type: ADME, subcellular, Lysosome; settings: a549, 20 min
[14] = Drug localization in mitochondria of human A549 cells assessed as colocalization incubated for 20 mins by MitoTracker Green staining based analysis; assay type: ADME; settings: a549, 20 min
[15] = Drug localization in golgi body of human A549 cells assessed as colocalization incubated for 20 mins by Golgi-Tracker Green staining based analysis; assay type: ADME, subcellular; settings: a549, 20 min
[16] = Drug localization in nucleus of human A549 cells assessed as colocalization incubated for 20 mins by […] staining based analysis; assay type: ADME, subcellular; settings: a549, 20 min
[17] = Photostability of compound in human A549 cells at 5 uM measured within 3 min in the presence of light-irradition; assay type: ADME, cell-based; settings: a549, 0.05 h
[18] = Drug uptake in human A549 cells assessed as decrease in red channel at 5 uM treated with SO2 incubated for 1 hr by confocal microscopic analysis; assay type: ADME, cell-based; settings: a549, 1 h
[19] = Drug uptake in human A549 cells assessed as increase in green channel at 5 uM treated with SO2 for 1 hr by confocal microscopic analysis; assay type: ADME, cell-based; settings: a549, 1 h
[20] = Drug uptake in human A549 cells assessed as increase in fluorescence ratio at 5 uM treated with SO2 for 1 hr by confocal microscopic analysis; assay type: ADME, cell-based; settings: a549, 1 h
[21] = Drug uptake in human A549 cells assessed as increase in fluorescence ratio at 5 uM pretreated with NaHSO3 for 1 hr followed by SO2 for 1 hr by confocal microscopic analysis; assay type: ADME, cell-based; settings: a549, 2 h
[22] = Drug uptake in human A549 cells assessed as decrease in red channel at 5 to 100 uM pretreated with NaHSO3 for 1 hr followed by SO2 for 1 hr by confocal microscopic analysis; assay type: ADME, cell-based; settings: a549, 2 h, dose 5-100 µM
[23] = Drug uptake in human A549 cells assessed as increase in green channel at 5 to 100 uM pretreated with NaHSO3 for 1 hr followed by SO2 for 1 hr by confocal microscopic analysis; assay type: ADME, cell-based; settings: a549, 2 h, dose 5-100 µM

In the case of O=S(=O)([O-])CCCC[n+]1c(CC(c2ccc(N(c3ccccc3)c3ccccc3)cc2)S(=O)(=O)[O-])sc2ccccc21.[Na+] (stereo unspecified), the Activity (H9c2 [1]) is reported as “inactive”, the Activity (H9c2 [2]) is reported as “Non-Toxic” and the Drug uptake [3] is reported as “Active”.

With O=S(=O)([O-])CCCC[n+]1c(/C=C/c2ccc(N(c3ccccc3)c3ccccc3)cc2)sc2ccccc21 the Activity (H9c2 [4]) was “Active”, the Activity (H9c2 [5]) was “Active” and the Activity (H9c2 [6]) was “Active”. For the same compound, the Activity (H9c2 [2]) was “Non-Toxic”, the Activity (Mus musculus [7]) was “Active” and the Activity (Mus musculus [8]) was “Active”. The Activity (Mus musculus [9]) was “Active”, the Activity (Mus musculus [10]) was “Active” and the Activity (Mus musculus [11]) was “Active”. The Activity (A549) was “Active”, the Activity (L02) was “Non-Toxic” and the Drug uptake [12] was “Active”. The Drug uptake [13] was “Not Active”, the Drug uptake [14] was “Not Active” and the Drug uptake [15] was “Not Active”. For the same compound, the Drug uptake [16] was “Not Active”, the Stability [17] was “Stable” and the Drug uptake [18] was “Active”. For the same compound, the Drug uptake [19] was “Active”, the Drug uptake [20] was “Active” and the Drug uptake [21] was “Active”. The Drug uptake [22] was “Active” and the Drug uptake [23] was “Active”.
